Assay results from article PMC6934184, “Selective DNA-PKcs inhibition extends the therapeutic index of localized radiotherapy and chemotherapy” (The Journal of Clinical Investigation, 2019).

Molecular target: T1, KIT (Homo sapiens, UniProt P10721)
T1 construct: purchased Thermo Fisher Scientific (Life Technologies) SelectScreen
Experiment: SelectScreen Z'LYTE
Assay type: biochemical
Procedure, shortened: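 Percent values come from Thermo SelectScreen profiling of NU5455, combining activity and binding assays. CSF1R was run in Z'LYTE format at Km app ATP, and CAMK1 in Adapta format with ATP listed at 10.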

T1 sequence (P10721 26-976): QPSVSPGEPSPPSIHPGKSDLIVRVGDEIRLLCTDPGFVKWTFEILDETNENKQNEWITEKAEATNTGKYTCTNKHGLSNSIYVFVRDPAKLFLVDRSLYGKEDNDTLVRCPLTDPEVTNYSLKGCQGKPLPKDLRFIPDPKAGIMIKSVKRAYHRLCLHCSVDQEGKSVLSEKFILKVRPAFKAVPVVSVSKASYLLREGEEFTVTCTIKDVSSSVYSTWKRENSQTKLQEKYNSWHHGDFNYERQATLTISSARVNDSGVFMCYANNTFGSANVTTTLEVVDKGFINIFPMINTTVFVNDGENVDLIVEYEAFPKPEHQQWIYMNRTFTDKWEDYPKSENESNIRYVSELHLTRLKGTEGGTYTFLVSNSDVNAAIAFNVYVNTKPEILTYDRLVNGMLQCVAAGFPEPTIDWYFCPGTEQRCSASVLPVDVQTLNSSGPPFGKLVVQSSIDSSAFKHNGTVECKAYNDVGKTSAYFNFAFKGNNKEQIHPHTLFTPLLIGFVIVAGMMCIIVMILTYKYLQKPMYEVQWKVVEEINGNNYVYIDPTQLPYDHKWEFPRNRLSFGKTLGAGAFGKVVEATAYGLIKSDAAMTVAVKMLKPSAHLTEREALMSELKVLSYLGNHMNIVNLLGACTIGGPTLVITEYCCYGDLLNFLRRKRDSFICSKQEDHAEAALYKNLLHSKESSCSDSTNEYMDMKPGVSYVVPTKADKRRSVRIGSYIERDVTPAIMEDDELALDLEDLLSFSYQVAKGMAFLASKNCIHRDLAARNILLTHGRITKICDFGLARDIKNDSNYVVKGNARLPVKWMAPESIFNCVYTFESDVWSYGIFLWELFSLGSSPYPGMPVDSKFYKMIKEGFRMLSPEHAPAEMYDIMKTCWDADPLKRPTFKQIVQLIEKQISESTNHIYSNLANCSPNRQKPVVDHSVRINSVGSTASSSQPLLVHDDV

CN(C(=O)CN1CCOCC1)c1ccc2sc3c(-c4cccc5c(=O)cc(N6CC7CCC(C6)O7)oc45)cccc3c2c1 [NU5455]
inhibition at 1 µM: 5.3%
